Data published in patent US4806564A, “Antihypercholesterolemic beta-lactones” (Merck & Co., Inc., priority 1987, dated 1989).

Target: T1, HMG-CoA synthase (Rattus norvegicus, UniProt P17425)
T1 construct: The HMG-CoA synthase was eluted from the column with 0.1 M phosphate buffer (pH 7.2); from tissue; host or cells: liver of male Charles River CD rats
T1 sequence (P17425 1-520): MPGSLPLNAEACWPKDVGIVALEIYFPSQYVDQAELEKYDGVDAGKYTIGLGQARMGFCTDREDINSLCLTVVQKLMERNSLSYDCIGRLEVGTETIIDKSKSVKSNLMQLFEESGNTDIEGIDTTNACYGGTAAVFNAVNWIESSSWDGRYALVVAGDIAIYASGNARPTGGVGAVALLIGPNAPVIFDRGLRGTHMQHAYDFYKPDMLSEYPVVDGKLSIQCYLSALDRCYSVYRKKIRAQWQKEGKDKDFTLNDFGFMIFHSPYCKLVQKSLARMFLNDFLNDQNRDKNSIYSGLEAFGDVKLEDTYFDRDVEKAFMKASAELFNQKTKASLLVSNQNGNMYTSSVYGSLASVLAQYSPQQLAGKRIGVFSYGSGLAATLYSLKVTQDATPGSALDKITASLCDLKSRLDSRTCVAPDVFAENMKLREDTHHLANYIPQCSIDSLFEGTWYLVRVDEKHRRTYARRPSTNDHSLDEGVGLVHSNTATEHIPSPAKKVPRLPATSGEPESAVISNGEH
Assay: HMG-CoA Synthase Inhibition Assay
Type: biochemical
Conditions: in vitro; HMG-CoA synthase purified from rat liver; 5 min preincubation with test compound at 30°, then 10 min with acetoacetyl-CoA and [14C]-acetyl-CoA
Method: The intrinsic HMG-CoA synthase inhibition activity of the compounds of this invention is measured by the standard in vitro protocol described below:
The livers from male Charles River CD rats (225-350 g) were homogenized in 0.25 M sucrose which was adjusted with phenylmethylsulfonylfluoride (PMSF) and N-p-tosyl-1-lysine chloromethyl ketone (TLCK) so that the final concentration of each was […], respectively. The homogenate was centrifuged at 15,000× g for 20 minutes, the supernatant filtered through a fine nylon screen to remove most of the fat layer and recentrifuged at 100,000× g for 1 hour. This supernatant was removed and 1 M potassium phosphate, dithiothreitol (DTT) and ethylene glycol-bis(β-aminoethyl ether)-N,N,N',N'-tetracetic acid (EGTA) added to give a final concentration of 0.1 M (pH 7.2), 0.5 mM and 0.1 mM, respectively. Solid ammonium sulfate was added to 50% saturation to the protein solution, it was centrifuged at 15,000× g and the supernatant discarded. This precipitated protein could be stored at -70° C. for at least one month with very little loss of activity. The ammonium sulfate precipitate was dissolved in an minimal mount of 0.06 M potassium phosphate buffer (pH 7.2) containing 0.5 mM dithiothreitol and 0.1 mM EGTA (referred to as 0.06 M phosphate buffer) and dialyzed overnight against 2 liters of the same buffer to remove the ammonium sulfate and to inactivate HMG-CoA lyase [Clinkenbeard, et al., J. Biol. Chem. 250, 3108-3116(1975)].
The dialyzed extract was added to a column of DEAE-52 (Whatman) which had been equilibrated with 0.06 M phosphate buffer (10 mg of protein to 1 ml bed volume of the resin). The DEAE-cellulose was eluted with 0.06 M phosphate buffer until the optical density at 280 nm was essentially zero. This fraction contained the β-ketoacetyl-CoA thiolase activity. The HMG-CoA synthase was eluted from the column with 0.1 M phosphate buffer (pH 7.2) containing 0.5 mM DTT and 0.1 mM EGTA, and was virtually free of all thiolase activity. The protein was precipitated by the addition of ammonium sulfate to give 50% saturation. This solution was stirred for 10 minutes at 4° C. and the precipitate collected by centrifugation at 15,000 rpm for 10 minutes. The supernatant was discarded and the precipitate dissolved in a minimum of 0.06 M phosphate buffer, pH 7.2 (about 10 ml) and the enzyme stored at -80° C.
Enzyme protein (ca. 24 mg) was added to a solution containing […] (pH 8.0), 11.7 μM MgCl2, 1.17 μM Ethylenediaminetetraacetic acid (EDTA), 0.58 μM dithiothreitol, and the indicated concentrations of the test compound (added as a 2 mg/ml solution in dimethylsulfoxide). The incubation took place in a volume of 0.085 ml at 30° in a shaking water bath. After 5 minutes, […] of a solution containing acetoacetyl-CoA and 0.1 μCi of 1-[^14 C]-acetyl-CoA was added to give a final concentrations of 0.1 and 0.4 μM, respectively. The incubation was continued for 10 more minutes and the reaction stopped by the addition of […] of the assay mixture to 0.2 ml of 6N HCl in a glass scintillation vial. The vial was heated for 1 hour at 120° after which time 0.2 ml more of 6N HCl was again added to each vial and the heating continued for another hour. Following this, 1.0 ml of 0.9% saline was added to each vial and finally 10 ml of scintillation liquid. Radioactivity was determined in a Packard Tri-Carb liquid scintillation counter.
Percent inhibition is calculated by the formula: [formula]
IC50 values were determined by plotting the log of the concentration of the test compound verses the percentage inhibition and fitting a straight line to the resulting data by using the least squares method.

Compound | IC50 [nM]
C[C@H]1C(=O)O[C@@H]1CCCCCCc1ccccc1 (relative stereo) [(CH2)6 Ph, E-3-Methyl-4-(6-phenylhexyl)-2-oxetanone] | 1500
C=CCCCCCCCC[C@@H]1OC(=O)[C@H]1C (relative stereo) [(CH2)8 CHCH2, E-3-Methyl-4-(9-decenyl)-2-oxetanone] | 1600
CC(=O)CC(C)CCCCC1OC(=O)C1CO (stereo not shown) [8-(3-hydroxymethyl-4-oxo-2-oxetanyl)-4-methyl-2-octanone] | 1600
COCC1C(=O)OC1CCCCC(C)CC(C)OC (stereo not shown) [8-(3-methoxymethyl-4-oxo-2-oxetanyl)-4-methyl-2-methoxyoctane] | 5500
COCC1C(=O)OC1CCCCC(C)CC(C)=O (stereo not shown) [8-(3-methoxymethyl-4-oxo-2-oxetanyl)-4-methyl-2-octanone] | 1700
COCC1C(=O)OC1CCCCC(C)CC(C)(O)C(O)C(C)=CC(=O)OC (stereo not shown) [methyl 11-(3-methoxymethyl-4-oxo-2-oxetanyl)-4,5-dihydroxy-3,5,7-trimethyl-2-undecenoate] | 1900

Compounds with a lower IC50, results first:

IC50 [nM] | Compound
1400 | C[C@H]1C(=O)O[C@@H]1CCCCCc1ccccc1 (relative stereo) [(CH2)5Ph, E-3-Methyl-4-(5-phenylpentyl)-2-oxetanone]
1200 | C[C@H]1C(=O)O[C@@H]1CCCCCCCCCc1ccccc1 (relative stereo) [(CH2)9 Ph, E-3-methyl-4-(9-phenylnonyl)-2-oxetanone]
250 | CCCCCCCCCC[C@@H]1OC(=O)[C@H]1C (relative stereo) [(CH2)9CH3, E-3-Methyl-4-decyl-2-oxetanone]
800 | CC(CC(C)CCCCC1OC(=O)C1CO)=NNc1ccc(Br)cc1 (stereo not shown) [8-(3-hydroxymethyl-4-oxo-2-oxetanyl)-4-methyl-2-(4-bromophenylhydrazono)-octane]
100 | CC(=CC(=O)O)C1OC1(C)CC(C)CCCCC1OC(=O)C1CO (stereo not shown) [11-(3-hydroxymethyl-4-oxo-2-oxetanyl)-4,5-oxiranyl-3,5,7-trimethyl-2-undecenoic acid]
1100 | COC(=O)C=C(C)C(O)C(C)(O)CC(C)CCCCC1OC(=O)C1CO (stereo not shown) [methyl 11-(3-hydroxymethyl-4-oxo-2-oxetanyl)-4,5-dihydroxy-3,5,7-trimethyl-2-undecenoate]
80 | COC(=O)C=C(C)C1OC1(C)CC(C)CCCCC1OC(=O)C1CO (stereo not shown) [methyl 11-(3-hydroxymethyl-4-oxo-2-oxetanyl)-4,5-oxiranyl-3,5,7-trimethyl-2-undecenoate]
